IC50 data for five compounds are collected here from patent US8163781B2, “Bi-aryl aminotetralines” (Hoffman-La Roche Inc., priority 2008, dated 2012).

SMILES strings stand for the structures.

The target of this assay is T1, human CRTH2 (Homo sapiens, UniProt Q9Y5Y4).
T1 construct: expressed in transfected cells
T1 sequence (Q9Y5Y4 1-395): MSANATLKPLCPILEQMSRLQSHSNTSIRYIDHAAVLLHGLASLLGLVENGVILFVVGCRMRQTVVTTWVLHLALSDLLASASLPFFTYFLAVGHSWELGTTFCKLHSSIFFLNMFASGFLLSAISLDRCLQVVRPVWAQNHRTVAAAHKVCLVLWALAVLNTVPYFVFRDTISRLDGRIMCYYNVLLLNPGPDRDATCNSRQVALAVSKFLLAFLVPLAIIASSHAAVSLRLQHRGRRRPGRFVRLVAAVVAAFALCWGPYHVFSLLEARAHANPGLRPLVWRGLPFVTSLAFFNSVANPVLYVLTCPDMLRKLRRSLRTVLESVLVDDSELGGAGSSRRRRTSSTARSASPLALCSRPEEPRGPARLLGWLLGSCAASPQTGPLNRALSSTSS
The assay can be described thus: Human CRTH2 Receptor Binding Assay. The settings on record: whole cell binding, CHO-K1 cells expressing human CRTH2, 20 nM [3H]ramatroban as competing radioligand. From the text: A whole cell receptor binding assay using [^3H]ramatroban as the competing radioactive ligand was employed to evaluate the compound binding activity to human CRTH2. The radioactive ligand [^3H]ramatroban was synthesized according to Sugimoto et. al. (Eur. J. Pharmacol. 524, 30-37, 2005) to a specific activity of 42 Ci/mmol.
A cell line stably expressing human CRTH2 was established by transfecting CHO-K1 cells with two mammalian expression vectors that harbored human CRTH2 and G-alpha16 cDNAs, respectively, using FuGene® 6 transfection reagent (from Roche). Stable clones expressing CRTH2 were selected by staining each clone with BM16 (BD Pharmingen™ from BD Biosciences, a division of Becton, Dickinson and Company), which is a rat monoclonal antibody to human CRTH2. The cells were maintained as monolayer cultures in Ham's F-12 medium containing 10% fetal bovine serum, 100 units/mL penicillin, 100 μg/mL streptomycin, 2 mM glutamine, 0.5 mg/mL G418 (geneticin) for CRTH2, and 0.2 mg/mL hygromycin-B (for G-alpha 16). For whole cell receptor binding assay, the monolayer cells were rinsed once with PBS (phosphate buffered saline), dissociated using ethylenediaminetetraacetate (Versene™ EDTA from the Lonza Inc.), and suspended in PBS containing 10 mM MgCl2 and 0.06% BSA (bovine serum albumin) at 1.5×10^6 cells/mL.
The binding reactions (0.2 mL) were performed in 96-well plates at room temperature in PBS containing 1.5×10^5 cells, 10 mM MgCl2, 0.06% BSA, 20 nM [^3H]ramatroban, and test compound at various concentrations. After 1 hour of binding reactions, the cells were harvested on GF™/B filter microplates (microtiter plates with embedded glass fiber from PerkinElmer, Inc.) and washed 5 times with PBS using a Filtermate™ Harvester (a cell harvester that harvests and washes cells from microplates from PerkinElmer, Inc.). The radioactivities bound to the cells were determined using a microplate scintillation counter (TopCount® NXT, from PerkinElmer, Inc.) after adding 50 μL of Microscint™ 20 scintillation fluid (from PerkinElmer, Inc.) to each well of the filter plates. The radioactivity from non-specific binding was determined by replacing compound with 10 μM of 15(R)-15-methyl PGD2 (from Cayman Chemical Company) in the reaction mixtures. The radioactivity bound to the cells in the absence of compound (total binding) was determined by replacing compound with 0.25% of DMSO (dimethyl sulfoxide) in the reaction mixture. Specific binding data were obtained by subtracting the radioactivity of non-specific binding from each binding data.
The IC50 value is defined as the concentration of the tested compound that is required for 50% inhibition of total specific binding. In order to calculate the IC50 value, the percent inhibition data were determined for 7 concentrations for each compound. The percent inhibition for a compound at each concentration was calculated according to the following formula, [1-(specific binding in the presence of compound)/(total specific binding)]×100. The IC50 value was then obtained by fitting the percent inhibition data to a sigmoidal dose-response (4 parameter logistic) model in the XLfit® software Excel add-in program [from ID Business Solutions Ltd., model 205, where F(x)=(A+(B−A)/(1+((C/x)^D)))].
In the case of `Cc1cc(-c2ccc(S(=O)(=O)N[C@@H]3CCCc4c(OCC(=O)O)cccc43)nc2)cc(C(C)(C)C)c1` [Example 3-48, {(R)-5-[5-(3-tert-Butyl-5-methyl-phenyl)-pyridine-2-sulfonylamino]-5,6,7,8-tetrahydro-naphthalen-1-yloxy}-acetic acid], the IC50 was found to be 4.8 nM.

Take `O=C(O)COc1cccc2c1CCCC2NS(=O)(=O)c1ccc(-c2ccc(OC(F)(F)F)cc2)cn1` (centres unmarked) [Example 3-62, {5-[5-(4-Trifluoromethoxy-phenyl)-pyridine-2-sulfonylamino]-5,6,7,8-tetrahydro-naphthalen-1-yloxy}-acetic acid]: the IC50 is 70.7 nM. The compound `C[S+]([O-])c1cccc(-c2ccc(S(=O)(=O)N[C@@H]3CCCc4c(OCC(=O)O)cccc43)cc2)c1` (stereo partly drawn) [Example 4-1, [(R)-5-(3′-Methanesulfinyl-biphenyl-4-sulfonylamino)-5,6,7,8-tetrahydro-naphthalen-1-yloxy]-acetic acid] yielded an IC50 of 13.5 nM.

Turning to `CN([C@@H]1CCCc2c(OCC(=O)O)cccc21)S(=O)(=O)c1ccc(Oc2ccc(Cl)cc2)c(Cl)c1` [Example 6-1, ((R)-5-{[3-Chloro-4-(4-chloro-phenoxy)-benzenesulfonyl]-methyl-amino}-5,6,7,8-tetrahydro-naphthalen-1-yloxy)-acetic acid], the IC50 came out at 147 nM.

`CN([C@@H]1CCCc2c(OCC(=O)O)cccc21)S(=O)(=O)c1cc(C(F)(F)F)cc(S(=O)(=O)c2ccc(Cl)cc2)c1` [Example 8-1, ((R)-5-{[3-(4-Chloro-benzenesulfonyl)-5-trifluoromethyl-benzenesulfonyl]-methyl-amino}-5,6,7,8-tetrahydro-naphthalen-1-yloxy)-acetic acid] had an IC50 of 2.9 nM.

Usually IC50 stands for the concentration at which inhibition is half-maximal. Higher therefore signals a need for much substance.
